Reference: ChEMBL document CHEMBL1146680, “A highly toxic morphine-3-glucuronide derivative” (Bioorg Med Chem Lett, 2004)
Activity calls are given as the source filed them. The calls are words filed in the database; no cut-off is given here.

Assays:
Rattus norvegicus [1] = assay: Opioid antagonist activity (1 mg/kg, peripherally) was determined by measuring the analgesia produced by morphine given 10 mins (after the compound) at a dose of 5 mg/kg; no effect; assay type: functional, organism-based; design: dose 5 mg/kg
Rattus norvegicus [2] = assay: Opioid antagonist activity (30 mg/kg, peripherally) was determined by measuring the analgesia produced by morphine given 10 mins (after the compound) at a dose of 5 mg/kg; no effect; assay type: functional, organism-based; design: dose 5 mg/kg
Rattus norvegicus [3] = assay: Opioid antagonist activity (5 mg/kg, peripherally) was determined by measuring the analgesia produced by morphine given 10 mins (after the compound) at a dose of 5 mg/kg; no effect; assay type: functional, organism-based; design: dose 5 mg/kg
Rattus norvegicus [4] = assay: Opioid antagonist activity (1 mg/kg, peripherally) was determined by measuring the analgesia produced by morphine given 20 mins (after the compound) at a dose of 5 mg/kg; no effect; assay type: functional, organism-based; design: dose 5 mg/kg
Rattus norvegicus [5] = assay: Opioid agonist activity by measuring the analgesia produced after 1 mg/kg administration in rats; none; assay type: functional, organism-based; design: dose 1 mg/kg
Rattus norvegicus [6] = assay: Opioid agonist activity by measuring the analgesia produced after 10 mg/kg administration in rats; none; assay type: functional, organism-based; design: dose 10 mg/kg
Rattus norvegicus [7] = assay: Opioid agonist activity by measuring the analgesia produced after 5 mg/kg administration in rats; none; assay type: functional, organism-based; design: dose 5 mg/kg
Rattus norvegicus [8] = assay: Analgesic effect on rats after 30 mins of 5 mg/kg administration; value ranges from 60-70%; assay type: functional
Rattus norvegicus [9] = assay: Inhibition of analgesia by (5 mg/kg) administered 10 min after morphine (5 mg/kg); inhibited; assay type: functional, organism-based
Rattus norvegicus [10] = assay: Effect after 1 mg/kg i.p. administration was measured by rat paw pressure test; no analgesia observed; assay type: functional, organism-based; design: dose 1 mg/kg
Rattus norvegicus [11] = assay: Effect after 1 mg/kg i.p. administration was measured by rat tail flick test; no analgesia observed; assay type: functional, organism-based; design: dose 1 mg/kg
Rattus norvegicus [12] = assay: Effect after 10 mg/kg i.p. administration was measured by rat paw pressure test; no analgesia observed; assay type: functional, organism-based; design: dose 10 mg/kg
Rattus norvegicus [13] = assay: Effect after 10 mg/kg i.p. administration was measured by rat tail flick test; no analgesia observed; assay type: functional, organism-based; design: dose 10 mg/kg
Rattus norvegicus [14] = assay: Effect after 5 mg/kg i.p. administration was measured by rat paw pressure test; no analgesia observed; assay type: functional, organism-based; design: dose 5 mg/kg
Rattus norvegicus [15] = assay: Effect after 5 mg/kg i.p. administration was measured by rat tail flick test; no analgesia observed; assay type: functional, organism-based; design: dose 5 mg/kg
Mus musculus [16] = assay: Effect after 1 ng/kg i.p. administration was measured by mice paw pressure test; no analgesia observed; assay type: functional, organism-based
Mus musculus [17] = assay: Effect after 1 ng/kg i.p. administration was measured by mice tail flick test; no analgesia observed; assay type: functional, organism-based
Rattus norvegicus [18] = assay: Reversion of toxic effect (1 ng/kg) by naloxone given 10 mins (after the compound) at a dose of 1 mg/kg; no improvement in survival observed; assay type: organism-based; design: dose 1 mg/kg; details: in vivo
Rattus norvegicus [19] = assay: Reversion of toxic effect (1 ng/kg) by naloxone given 10 mins (after the compound) at a dose of 10 mg/kg; no improvement in survival observed; assay type: ADME, organism-based; design: dose 10 mg/kg; details: in vivo
Rattus norvegicus [20] = assay: Reversion of toxic effect (1 ng/kg) by naloxone given 10 mins (after the compound) at a dose of 5 mg/kg; no improvement in survival observed; assay type: ADME, organism-based; design: dose 5 mg/kg; details: in vivo
Rattus norvegicus [21] = assay: Reversion of toxic effect (1 ng/kg) by naloxone given 10 mins (before the compound) at a dose of 1 mg/kg; no improvement in survival observed; assay type: organism-based; design: dose 1 mg/kg; details: in vivo
Rattus norvegicus [22] = assay: Reversion of toxic effect (1 ng/kg) by naloxone given 10 mins (before the compound) at a dose of 10 mg/kg; no improvement in survival observed; assay type: ADME, organism-based; design: dose 10 mg/kg; details: in vivo
Rattus norvegicus [23] = assay: Reversion of toxic effect (1 ng/kg) by naloxone given 10 mins (before the compound) at a dose of 5 mg/kg; no improvement in survival observed; assay type: ADME, organism-based; design: dose 5 mg/kg; details: in vivo
Rattus norvegicus [24] = assay: Reversion of toxic effect (1 ng/kg) by naloxone given 15 mins (after the compound) at a dose of 1 mg/kg; no improvement in survival observed; assay type: organism-based; design: dose 1 mg/kg; details: in vivo, 0.25 h
Rattus norvegicus [25] = assay: Reversion of toxic effect (1 ng/kg) by naloxone given 15 mins (after the compound) at a dose of 10 mg/kg; no improvement in survival observed; assay type: ADME, organism-based; design: dose 10 mg/kg; details: in vivo, 0.25 h
Rattus norvegicus [26] = assay: Reversion of toxic effect (1 ng/kg) by naloxone given 15 mins (after the compound) at a dose of 5 mg/kg; no improvement in survival observed; assay type: ADME, organism-based; design: dose 5 mg/kg; details: in vivo, 0.25 h
Rattus norvegicus [27] = assay: Reversion of toxic effect (1 ng/kg) by naloxone given 15 mins (before the compound) at a dose of 1 mg/kg; no improvement in survival observed; assay type: organism-based; design: dose 1 mg/kg; details: in vivo, 0.25 h
Rattus norvegicus [28] = assay: Reversion of toxic effect (1 ng/kg) by naloxone given 15 mins (before the compound) at a dose of 10 mg/kg; no improvement in survival observed; assay type: organism-based; design: dose 10 mg/kg; details: in vivo, 0.25 h
Rattus norvegicus [29] = assay: Reversion of toxic effect (1 ng/kg) by naloxone given 15 mins (before the compound) at a dose of 5 mg/kg; no improvement in survival observed; assay type: ADME, organism-based; design: dose 5 mg/kg; details: in vivo, 0.25 h
Rattus norvegicus [30] = assay: Reversion of toxic effect (1 ng/kg) by naloxone given 20 mins (after the compound) at a dose of 1 mg/kg; no improvement in survival observed; assay type: ADME, organism-based; design: dose 1 mg/kg; details: in vivo
Rattus norvegicus [31] = assay: Reversion of toxic effect (1 ng/kg) by naloxone given 20 mins (after the compound) at a dose of 10 mg/kg; no improvement in survival observed; assay type: ADME, organism-based; design: dose 10 mg/kg; details: in vivo
Rattus norvegicus [32] = assay: Reversion of toxic effect (1 ng/kg) by naloxone given 20 mins (before the compound) at a dose of 1 mg/kg; no improvement in survival observed; assay type: organism-based; design: dose 1 mg/kg; details: in vivo
Rattus norvegicus [33] = assay: Reversion of toxic effect (1 ng/kg) by naloxone given 20 mins (before the compound) at a dose of 10 mg/kg; no improvement in survival observed; assay type: ADME, organism-based; design: dose 10 mg/kg; details: in vivo
Rattus norvegicus [34] = assay: Reversion of toxic effect (1 ng/kg) by naloxone given 20 mins (before the compound) at a dose of 5 mg/kg; no improvement in survival observed; assay type: ADME, organism-based; design: dose 5 mg/kg; details: in vivo
Rattus norvegicus [35] = assay: Reversion of toxic effect (1 ng/kg) by naloxone given 30 mins (after the compound) at a dose of 1 mg/kg; no improvement in survival observed; assay type: ADME, organism-based; design: dose 1 mg/kg; details: in vivo, 0.5 h
Rattus norvegicus [36] = assay: Reversion of toxic effect (1 ng/kg) by naloxone given 30 mins (after the compound) at a dose of 10 mg/kg; no improvement in survival observed; assay type: organism-based; design: dose 10 mg/kg; details: in vivo, 0.5 h
Rattus norvegicus [37] = assay: Reversion of toxic effect (1 ng/kg) by naloxone given 30 mins (after the compound) at a dose of 5 mg/kg; no improvement in survival observed; assay type: ADME, organism-based; design: dose 5 mg/kg; details: in vivo, 0.5 h
Rattus norvegicus [38] = assay: Effect on rats after 30 mins of 0.005 mg/kg administration; death observed; assay type: ADME, organism-based; design: dose 0.005 mg/kg; details: in vivo, 0.5 h
Rattus norvegicus [39] = assay: Effect on rats after 30 mins of 0.5 mg/kg administration; death observed; assay type: ADME, organism-based; design: dose 0.5 mg/kg; details: in vivo, 0.5 h
Rattus norvegicus [40] = assay: Effect on rats after 30 mins of 1 mg/kg administration; death observed; assay type: ADME, organism-based; design: dose 1 mg/kg; details: in vivo, 0.5 h
Rattus norvegicus [41] = assay: Effect on rats after 30 mins of 1 ng/kg administration; death observed; assay type: ADME, organism-based; details: in vivo, 1e-06 mg/kg, 0.5 h
Rattus norvegicus [42] = assay: Effect on rats after 30 mins of 2.5 mg/kg administration; death observed; assay type: ADME, organism-based; design: dose 2.5 mg/kg; details: in vivo, 0.5 h
Rattus norvegicus [43] = assay: Effect on rats after 30 mins of 5 mg/kg administration; death observed; assay type: ADME, organism-based; design: dose 5 mg/kg; details: in vivo, 0.5 h
Rattus norvegicus [44] = assay: Effect on rats after 30 mins of 0.05 mg/kg administration; death observed; assay type: ADME, organism-based; design: dose 0.05 mg/kg; details: in vivo, 0.5 h
Rattus norvegicus [45] = assay: Reversion of toxic effect (1 ng/kg) by naloxone given 20 mins (after the compound) at a dose of 5 mg/kg; no improvement in survival observed; assay type: organism-based; design: dose 5 mg/kg; details: in vivo

C=CCN1CC[C@]23c4c5ccc(O)c4O[C@H]2C(=O)CC[C@@]3(O)[C@H]1C5
Activity (Rattus norvegicus [1]): inactive
Activity (Rattus norvegicus [2]): inactive
Activity (Rattus norvegicus [3]): inactive

CN1CC[C@]23c4c5ccc(O[C@@H]6O[C@H](C(=O)O)[C@@H](O)[C@H](O)[C@H]6O)c4O[C@H]2[C@@H](O)C=C[C@H]3[C@H]1C5 (stereo in doubt; form 1)
Activity (Rattus norvegicus [4]): inactive
Activity (Rattus norvegicus [2]): inactive
Activity (Rattus norvegicus [3]): inactive
Activity (Rattus norvegicus [5]): inactive
Activity (Rattus norvegicus [6]): inactive
Activity (Rattus norvegicus [7]): inactive

CN1CC[C@]23c4c5ccc(O)c4O[C@H]2[C@@H](O)C=C[C@H]3[C@H]1C5 [MORPHINE]
Effect (Rattus norvegicus [8]): 70%

CN1CC[C@]23c4c5ccc(OC6OC(C(N)=O)C(O)C(O)C6O)c4O[C@H]2[C@@H](O)C=C[C@H]3[C@H]1C5 (stereo not given in full)
Activity (Rattus norvegicus [9]): inhibited
Effect (Rattus norvegicus [10]): no analgesia observed
Effect (Rattus norvegicus [11]): no analgesia observed
Effect (Rattus norvegicus [12]): no analgesia observed
Effect (Rattus norvegicus [13]): no analgesia observed
Effect (Rattus norvegicus [14]): no analgesia observed
Effect (Rattus norvegicus [15]): no analgesia observed

CCCCCCCCNC(=O)C1OC(Oc2ccc3c4c2O[C@H]2[C@@H](O)C=C[C@H]5[C@@H](C3)N(C)CC[C@@]452)C(O)C(O)C1O (stereo not given in full)
Effect (Mus musculus [16]): Death
Effect (Mus musculus [17]): Death
Activity (Rattus norvegicus [18]): no improvement in survival
Activity (Rattus norvegicus [19]): no improvement in survival
Activity (Rattus norvegicus [20]): no improvement in survival
Activity (Rattus norvegicus [21]): no improvement in survival
Activity (Rattus norvegicus [22]): no improvement in survival
Activity (Rattus norvegicus [23]): no improvement in survival
Activity (Rattus norvegicus [24]): no improvement in survival
Activity (Rattus norvegicus [25]): no improvement in survival
Activity (Rattus norvegicus [26]): no improvement in survival
Activity (Rattus norvegicus [27]): no improvement in survival
Activity (Rattus norvegicus [28]): no improvement in survival
Activity (Rattus norvegicus [29]): no improvement in survival
Activity (Rattus norvegicus [30]): no improvement in survival
Activity (Rattus norvegicus [31]): no improvement in survival
Activity (Rattus norvegicus [32]): no improvement in survival
Activity (Rattus norvegicus [33]): no improvement in survival
Activity (Rattus norvegicus [34]): no improvement in survival
Activity (Rattus norvegicus [35]): no improvement in survival
Activity (Rattus norvegicus [36]): no improvement in survival
Activity (Rattus norvegicus [37]): no improvement in survival
Effect (Rattus norvegicus [38]): Death
Effect (Rattus norvegicus [39]): Death
Effect (Rattus norvegicus [40]): Death
Effect (Rattus norvegicus [41]): Death
Effect (Rattus norvegicus [42]): Death
Effect (Rattus norvegicus [43]): Death
Effect (Rattus norvegicus [44]): Death
Activity (Rattus norvegicus [45]): no improvement in survival

CN1CC[C@]23c4c5ccc(O[C@@H]6O[C@H](C(=O)O)[C@@H](O)[C@H](O)[C@H]6O)c4O[C@H]2[C@@H](O)C=C[C@H]3[C@H]1C5 (stereo in doubt; form 2)
Activity (Rattus norvegicus [5]): inactive
Activity (Rattus norvegicus [6]): inactive
Activity (Rattus norvegicus [7]): inactive
